Tests used:
[1] = biological target: bovine heart mitochondrial complex I (Bos taurus, UniProt P03887+P17694+P42026); assay: Complex I (NADH-Q1 oxidoreductase) inhibition in submitochondrial particles; type: biochemical; conditions: submitochondrial particles, 30° C.
[2] = tested on: Friedreich's ataxia lymphoblast cell line GM15850; assay: Cytoprotection (trypan blue exclusion assay) of DEM-treated FRDA lymphocytes; type: cell-based; conditions: Homo sapiens, GM15850; 5 μM; DEM alone 18 ± 10% viability; read-out: Cytoprotection (cell viability, % of untreated control)
Description: Cell viability was determined by trypan blue exclusion assay in Friedreich's ataxia lymphoblast cell line GM15850 (Coriell Institute, New Jersey). This technique was used to assess the cytoprotective effects of the tested compounds in cultured cells treated with DEM to induce cell death by GSH depletion. The viability of DEM-treated FRDA cells was determined by their ability to exclude the dye trypan blue. Viable cells exclude trypan blue, whereas non-viable cells take up the dye and stain blue. Briefly, FRDA lymphocytes were grown in RPMI 1640 medium (Gibco) supplemented with 15% fetal calf serum, 2 mM glutamine (HyClone) and 1% penicillin-streptomycin mix (Cellgro). Cells were seeded at a density of 5×10^5 cells/mL and treated with different concentrations of the indicated compounds. Cells were incubated at 37° C. in a humidified atmosphere of 5% CO2 in air for 17 h. After pre-incubation, the cells were treated with 5 mM DEM. Cell viability was determined by staining cells with 0.4% trypan blue using a hemacytometer. At least 500 cells were counted in each experimental group. At the time of assay, <20% of DEM treated cells were viable (trypan blue negative), whereas in non DEM-treated control, >90% cells were viable. Cell viability was expressed as the percentage of control. Data are expressed as means±S.E.M. (n=3).
Cell viability was determined by trypan blue exclusion assay in Friedreich's ataxia lymphoblast cell line GM15850 (Coriell Institute). This technique was used to assess the cytoprotective effects of the compounds in cultured cells treated with diethyl maleate (DEM) to induce cell death by glutathione (GSH) depletion. The viability of DEM-treated FRDA cells was determined by their ability to exclude the dye trypan blue. Viable cells exclude trypan blue, whereas non-viable cells take up the dye and stain blue. […] Benzoquinone analogue 9 afforded greater cyoprotection to FRDA lymphocytes at 5 μM concentration than did the tert-butyl ester 6 (74 vs 50%).

FRDA lymphocytes = assay: Preservation of mitochondrial membrane potential (TMRM flow cytometry) in DEM-treated FRDA lymphocytes; type: cell-based
Description: FIG. 3. Effect of nitrogen-containing 1,4-benzoquinone derivatives on mitochondrial membrane potential of cultured FRDA cells. Representative flow cytometric two dimensional color density dot plot analyses of mitochondrial membrane potential Δψm in FRDA lymphocytes stained with TMRM and analyzed using the FL2-H channel as described in Experimental Section. The cells were washed twice in phosphate buffered saline, and suspended in phosphate buffered saline containing 20 mM glucose. The percentage of cells with intact Δψm is indicated in the top right quadrant of captions. In each analysis, 10,000 events were recorded. Data are expressed as means±SEM of three independent experiments run in duplicate.
Mitochondrial membrane potential was measured using two different fluorescent dyes, TMRM and JC-1. Δψm was determined as previously described by staining FRDA lymphocyte cells with TMRM (Molecular Probes, Eugene, Oreg.) and analyzing fluorescence emission by flow cytometry in detection channel 2 (FL2-H) (Khdour et al. (2011) Pharmaceut. Res. 28, 2896-2909). Briefly, FRDA lymphocytes were pre-treated with or without the test compounds for 16 h. The cells were treated with 5 mM DEM for 140 min, collected by centrifugation at 300×g for 3 min and then washed twice with phosphate buffered saline. The cells were resuspended in PBS containing […] and incubated at 37° C. in the dark for 15 min with 250 nM TMRM. Cells were collected by centrifugation at 300×g for 3 min and were then washed with phosphate buffered saline. The samples were analyzed immediately by flow cytometry using a 488 nm excitation laser and the FL2-H channel. The results obtained were verified in three independent experiments. […] In each analysis, 10,000 events were recorded. […] The following day, cells were treated with tested compounds and incubated for an additional 12 h before treatment with 1 mM BSO. Δψm was assessed after 24 h using JC-1 Mitochondrial Membrane Potential Detection Kit (Biotium, Inc) following the manufacturer instruction. Glass cover slips were rinsed with phosphate-buffered saline and mounted onto slides, and images were recorded and analyzed with a Zeiss AxioCam MRm and AxioVision 3.1 software (Carl Zeiss Goettingen, Germany) on a Zeiss Axiovert 200 M inverted microscope, equipped with a 40× oil immersion objective.
The ability of the test compounds to preserve mitochondrial membrane potential under conditions of oxidative stress was studied. […] Changes in mitochondrial membrane potential (Δψm) were measured using two different fluorescent dyes, tetramethylrhodamine methyl ester (TMRM) and 5,5′,6,6′-tetrachloro-1,1′,3,3′-tetraethylbenzimidazolocarbocyanine iodide (JC-1). […] The fluorescence signal of TMRM can be directly co-related to Δψm across the inner mitochondrial membrane. […]

[3] = tested on: differentiated SH-SY5Y cells; assay: Neuroprotection against Aβ 1-42 oligomer induced cytotoxicity (WST-1); type: cell-based, human; conditions: Aβ 1-42 oligomers 2.5 μM, 48 h
Description: FIG. 8. Effect of nitrogen-containing 1,4-benzoquinone 40 and geldanamycin on Aβ 1-42 induced neurotoxicity in differentiated SH-SY5Y cells.
The cytotoxic effect of Aβ 1-42 oligomers (2.5 μM) on differentiated SH-SY5Y cells was evaluated in presence and absence of the test compounds. Sequential treatment of the human SH-SY5Y neuroblastoma cell line with retinoic acid and brain-derived neurotrophic factor (BDNF) generates nearly pure populations of human neuron-like cells, thus providing a model for the study of neuronal differentiation and neuroprotection as previously described, with some modifications (Encinas et al. (2000) J. Neurochem. 75, 991-1003). […] The plates were incubated at 37° C. in an atmosphere having 95% humidity and 5% CO2 for 48 h and then cell viability was measured using a WST-1 Kit (Roche Diagnostics). […] Color intensity was measured with a 96-well plate at 450 nm using a SpectraMax M5 microplate reader (Molecular Devices, Sunnyvale, Calif.). Results are expressed as percentage of viable cells relative to untreated control after subtracting background. Data are expressed as means±S.E.M. (n=3).
Synthetic human Aβ 1-42 was purchased from AnaSpec (San Jose, Calif.). […] Aβ 1-42 peptide content was determined by the method of bicinchoninic acid assay (micro-BCA kit, Pierce) using BSA as reference.

Sequence of bovine heart mitochondrial complex I (P25708 21-464): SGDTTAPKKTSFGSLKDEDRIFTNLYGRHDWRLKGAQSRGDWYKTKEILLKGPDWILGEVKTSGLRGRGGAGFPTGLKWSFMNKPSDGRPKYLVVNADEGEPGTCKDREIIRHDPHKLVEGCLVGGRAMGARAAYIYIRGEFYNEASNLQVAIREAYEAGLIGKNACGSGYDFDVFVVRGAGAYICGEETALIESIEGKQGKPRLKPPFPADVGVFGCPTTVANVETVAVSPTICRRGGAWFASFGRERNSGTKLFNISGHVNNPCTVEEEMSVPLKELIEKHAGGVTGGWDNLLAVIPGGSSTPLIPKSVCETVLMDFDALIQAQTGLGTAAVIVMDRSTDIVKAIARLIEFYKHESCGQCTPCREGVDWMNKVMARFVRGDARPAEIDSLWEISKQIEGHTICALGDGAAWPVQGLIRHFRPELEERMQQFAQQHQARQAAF
Sequence of bovine heart mitochondrial complex I (P42026 38-216): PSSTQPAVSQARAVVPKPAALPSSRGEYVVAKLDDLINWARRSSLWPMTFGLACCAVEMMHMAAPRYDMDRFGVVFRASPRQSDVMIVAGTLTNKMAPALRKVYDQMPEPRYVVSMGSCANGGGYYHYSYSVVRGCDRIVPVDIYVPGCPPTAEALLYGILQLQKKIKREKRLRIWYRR
Sequence of bovine heart mitochondrial complex I (P17694 34-463): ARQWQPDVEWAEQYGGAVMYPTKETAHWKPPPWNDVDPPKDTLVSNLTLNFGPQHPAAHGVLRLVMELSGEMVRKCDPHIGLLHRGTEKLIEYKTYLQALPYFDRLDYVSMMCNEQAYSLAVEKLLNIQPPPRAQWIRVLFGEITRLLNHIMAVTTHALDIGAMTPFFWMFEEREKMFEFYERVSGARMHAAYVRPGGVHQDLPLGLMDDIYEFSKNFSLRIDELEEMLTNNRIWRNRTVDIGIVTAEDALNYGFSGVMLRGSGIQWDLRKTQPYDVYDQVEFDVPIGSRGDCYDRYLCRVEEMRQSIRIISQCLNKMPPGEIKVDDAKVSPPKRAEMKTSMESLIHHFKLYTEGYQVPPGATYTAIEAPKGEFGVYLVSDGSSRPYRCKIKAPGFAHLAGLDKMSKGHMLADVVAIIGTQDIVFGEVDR
Sequence of bovine heart mitochondrial complex I (P15690 24-727, further chain): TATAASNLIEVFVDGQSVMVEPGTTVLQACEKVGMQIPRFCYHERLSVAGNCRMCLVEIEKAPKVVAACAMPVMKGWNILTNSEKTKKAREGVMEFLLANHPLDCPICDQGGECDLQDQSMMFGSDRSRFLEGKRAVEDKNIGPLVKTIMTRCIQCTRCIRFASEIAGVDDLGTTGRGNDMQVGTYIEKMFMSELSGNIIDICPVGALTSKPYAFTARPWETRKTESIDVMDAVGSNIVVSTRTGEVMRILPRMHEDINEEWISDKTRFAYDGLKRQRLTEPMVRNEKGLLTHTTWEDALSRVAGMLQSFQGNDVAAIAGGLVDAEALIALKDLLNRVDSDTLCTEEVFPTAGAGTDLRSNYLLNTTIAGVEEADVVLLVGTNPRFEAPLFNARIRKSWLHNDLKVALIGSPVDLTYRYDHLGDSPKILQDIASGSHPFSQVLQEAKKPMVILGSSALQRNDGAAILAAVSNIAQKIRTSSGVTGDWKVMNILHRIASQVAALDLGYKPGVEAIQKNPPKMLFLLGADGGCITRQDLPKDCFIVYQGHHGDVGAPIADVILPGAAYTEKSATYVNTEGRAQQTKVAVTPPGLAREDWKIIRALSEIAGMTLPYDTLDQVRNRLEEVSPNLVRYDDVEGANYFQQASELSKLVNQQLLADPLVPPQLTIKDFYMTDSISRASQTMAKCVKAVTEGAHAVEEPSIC
Sequence of bovine heart mitochondrial complex I (P03887 whole entry): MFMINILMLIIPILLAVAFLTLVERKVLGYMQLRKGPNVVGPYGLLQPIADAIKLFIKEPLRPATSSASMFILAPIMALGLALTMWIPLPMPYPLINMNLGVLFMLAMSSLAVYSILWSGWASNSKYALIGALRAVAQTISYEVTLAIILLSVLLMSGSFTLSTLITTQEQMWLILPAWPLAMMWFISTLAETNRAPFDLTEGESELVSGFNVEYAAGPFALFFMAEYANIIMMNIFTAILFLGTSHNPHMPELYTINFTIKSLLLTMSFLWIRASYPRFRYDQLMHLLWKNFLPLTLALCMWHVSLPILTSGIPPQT
Sequence of bovine heart mitochondrial complex I (P42028 37-212, further chain): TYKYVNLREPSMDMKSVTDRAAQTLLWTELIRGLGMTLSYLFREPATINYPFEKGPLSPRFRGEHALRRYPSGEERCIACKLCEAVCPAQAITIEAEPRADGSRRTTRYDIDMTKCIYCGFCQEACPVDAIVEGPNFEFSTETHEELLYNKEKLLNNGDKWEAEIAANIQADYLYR

| Structure (SMILES) | IC50 ([1]; read-out: Complex I inhibition IC50) [µM] | Emax ([1]; read-out: Complex I inhibition Imax) [%] | viability at 5 µM [2] [%] | Preservation of mitochondrial membrane potential Δψm (in words) (FRDA lymphocytes) | Effect on Aβ 1-42 induced cytotoxicity (in words) [3] |
| --- | --- | --- | --- | --- | --- |
| CCCCCCCCCCCCCC1=C(OC)C(=O)C=C(NCCCC(=O)OCCCC)C1=O [Compound 15, Butyl 4-(4-methoxy-3,6-dioxo-5-tridecylcyclohexa-1,4-dienylamino)butanoate] | 98 ± 8 | ≥ 60 | 82 ± 2.9 | prevented the loss of Δψm | – |
| COC1=C2C[C@@H](C)C[C@H](OC)[C@H](O)[C@@H](C)/C=C(\C)[C@H](OC(N)=O)[C@@H](OC)/C=C\C=C(/C)C(=O)NC(=CC1=O)C2=O [geldanamycin, reference compound] | – | – | – | – | increased cytotoxicity |

Source: patent US9957214B2, “Multifunctional radical quenchers” (ARIZONA BOARD OF REGENTS ON BEHALF OF ARIZONA STATE …, priority 2012, dated 2018)
